The source made the active and inactive calls. The rule behind the calls is not given here.

One test deals with PC-12. The test can be described thus: Cytoprotective activity against corticosterone-induced apoptosis in rat PC12 cells incubated for 24 hrs by MTS assay. In kind it is functional, cell-based.
For a further test, the system named is Staphylococcus aureus. The test can be described thus: Antibacterial activity against Staphylococcus aureus assessed as inhibition of microbial growth incubated for 12 hrs by microdilution method. The test is classed as functional, organism-based.
Another test deals with Salmonella typhi. Description: Antibacterial activity against Salmonella typhi assessed as inhibition of microbial growth incubated for 12 hrs by microdilution method. In kind it is functional, organism-based. The note with it: Salmonella enterica subsp. enterica serovar Typhi. On the technique in general: Broth dilution looks for growth in wells or tubes with falling amounts of substance.

Another test relates to Gaeumannomyces graminis. Description: Antifungal activity against Gaeumannomyces graminis incubated for 48 hrs. The test is classed as functional, organism-based.
Another test relates to Verticillium. The test can be described thus: Antifungal activity against Verticillium cinnabarinum incubated for 48 hrs. In kind it is functional.

Take `COc1cc(O)c2c(c1)[C@]13O[C@@]4(C)C[C@](O)(C(=O)C[C@]1(C)O4)[C@@H]3OC2=O`: the result in the test on PC-12 was Active. For the same compound, the outcome in the test with Staphylococcus aureus, with Salmonella typhi, in the test on Gaeumannomyces graminis and in the test on Verticillium was inactive.
`COc1cc(O)c2c(c1)[C@@]13O[C@]4(C)C[C@@](O)(C(=O)C[C@@]1(C)O4)[C@H]3OC2=O`: in the test with PC-12, the result was Active. In addition, the result in the test with Staphylococcus aureus, in the test with Salmonella typhi, with Gaeumannomyces graminis and in the test with Verticillium was inactive.

The values above are taken from ChEMBL document CHEMBL4422688, “(+)- and (-)-Alternarilactone A: Enantiomers with a Diepoxy-Cage-like Scaffold from an Endophytic Alternaria sp” (J Nat Prod, 2019).
